Source: ChEMBL document CHEMBL4346757, “Synthesis and biological evaluation of 7-methoxy-1-(3,4,5-trimethoxyphenyl)-4,5-dihydro-2H-benzo[e]indazoles as new colchicine site inhibitors” (Bioorg Med Chem Lett, 2019)

How the values were obtained:
Format in all cases: functional
Malme-3M [1] = assay: Growth inhibition of human MALME-3M cells assessed as cell growth at 0.1 uM after 48 hrs by SRB assay relative to control; conditions: read-out: Activity
NCI-H23 = assay: Growth inhibition of human NCI-H23 cells assessed as cell growth at 0.01 uM after 48 hrs by SRB assay relative to control; conditions: NCI-H23, 48 h, read-out: Activity
Hs-578T = assay: Growth inhibition of human Hs 578T cells assessed as cell growth at 10 uM after 48 hrs by SRB assay relative to control; conditions: read-out: Activity
T47D [2] = assay: Cytotoxicity against human T47D cells assessed as growth inhibition after 48 hrs by SRB assay
EKVX = assay: Growth inhibition of human EKVX cells assessed as cell growth at 100 uM after 48 hrs by SRB assay relative to control; conditions: read-out: Activity
M14 [3] = assay: Growth inhibition of human M14 cells assessed as cell growth at 100 uM after 48 hrs by SRB assay relative to control; conditions: M14, 48 h, read-out: Activity
COLO 205 = assay: Growth inhibition of human COLO205 cells assessed as cell growth at 100 uM after 48 hrs by SRB assay relative to control; conditions: COLO 205, 48 h, read-out: Activity
HCC 2998 [4] = assay: Cytotoxicity against human HCC2998 cells assessed as growth inhibition after 48 hrs by SRB assay; conditions: HCC 2998, 48 h
CCRF-CEM = assay: Growth inhibition of human CCRF-CEM cells assessed as cell growth at 0.01 uM after 48 hrs by SRB assay relative to control; conditions: read-out: Activity
LOX IMVI [5] = assay: Growth inhibition of human LOXIMVI cells assessed as cell growth at 0.1 uM after 48 hrs by SRB assay relative to control; conditions: read-out: Activity
HCC 2998 [6] = assay: Growth inhibition of human HCC2998 cells assessed as cell growth at 10 uM after 48 hrs by SRB assay relative to control; conditions: HCC 2998, 48 h, read-out: Activity
T47D [7] = assay: Growth inhibition of human T47D cells assessed as cell growth at 0.1 uM after 48 hrs by SRB assay relative to control; conditions: read-out: Activity
HOP-62 = assay: Cytotoxicity against human HOP62 cells assessed as growth inhibition after 48 hrs by SRB assay; conditions: HOP-62, 48 h
K562 = assay: Growth inhibition of human K562 cells assessed as cell growth at 0.1 uM after 48 hrs by SRB assay relative to control; conditions: K562, 48 h, read-out: Activity
HT-29 = assay: Cytotoxicity against human HT-29 cells assessed as growth inhibition after 48 hrs by SRB assay; conditions: HT-29, 48 h
SNB-19 = assay: Growth inhibition of human SNB19 cells assessed as cell growth at 100 uM after 48 hrs by SRB assay relative to control; conditions: SNB-19, 48 h, read-out: Activity
SN12C [8] = assay: Growth inhibition of human SN12C cells assessed as cell growth at 10 uM after 48 hrs by SRB assay relative to control; conditions: read-out: Activity
SN12C [9] = assay: Growth inhibition of human SN12C cells assessed as cell growth at 1 uM after 48 hrs by SRB assay relative to control; conditions: read-out: Activity
HOP-92 = assay: Cytotoxicity against human HOP92 cells assessed as growth inhibition after 48 hrs by SRB assay; conditions: HOP-92, 48 h
LOX IMVI [10] = assay: Growth inhibition of human LOXIMVI cells assessed as cell growth at 1 uM after 48 hrs by SRB assay relative to control; conditions: read-out: Activity
SR [11] = assay: Growth inhibition of human SR cells assessed as cell growth at 10 uM after 48 hrs by SRB assay relative to control; conditions: read-out: Activity
MCF7 = assay: Cytotoxicity against human MCF7 cells assessed as growth inhibition after 48 hrs by SRB assay; conditions: MCF7, 48 h
HCT-116 = assay: Growth inhibition of human HCT116 cells assessed as cell growth at 10 uM after 48 hrs by SRB assay relative to control; conditions: HCT-116, 48 h, read-out: Activity
MOLT-4 = assay: Cytotoxicity against human MOLT4 cells assessed as growth inhibition after 48 hrs by SRB assay; conditions: MOLT-4, 48 h
CAKI-1 = assay: Growth inhibition of human Caki1 cells assessed as cell growth at 1 uM after 48 hrs by SRB assay relative to control; conditions: CAKI-1, 48 h, read-out: Activity
Malme-3M [12] = assay: Growth inhibition of human MALME-3M cells assessed as cell growth at 1 uM after 48 hrs by SRB assay relative to control; conditions: read-out: Activity
M14 [13] = assay: Cytotoxicity against human M14 cells assessed as growth inhibition after 48 hrs by SRB assay; conditions: M14, 48 h
SR [14] = assay: Growth inhibition of human SR cells assessed as cell growth at 100 uM after 48 hrs by SRB assay relative to control; conditions: read-out: Activity
U-251 = assay: Growth inhibition of human U251 cells assessed as cell growth at 100 uM after 48 hrs by SRB assay relative to control; conditions: U-251, 48 h, read-out: Activity
SK-MEL-5 = assay: Cytotoxicity against human SK-MEL-5 cells assessed as growth inhibition after 48 hrs by SRB assay; conditions: SK-MEL-5, 48 h
[15] = read-out: LC50 (the source's name)
[16] = read-out: pLC50 (the source's name) (converted)

## COc1ccc2c(c1)CCc1n[nH]c(-c3cc(OC)c(OC)c(OC)c3)c1-2
Malme-3M [1]
  growth at 0.1 µM: 48%
NCI-H23
  growth at 0.01 µM: 14%
Hs-578T
  growth at 10 µM: 9%
T47D [2]; read-out: GI50
  GI50: 3.59 µM
T47D [2]; read-out: LC50
  LC50: 62.5 µM
T47D [2]; read-out: TGI
  TGI: 21.3 µM
T47D [2]; read-out: pGI50 (converted)
  GI50: 3.63 µM
T47D [2]; read-out: pLC50 (converted)
  LC50: 63.1 µM
T47D [2]; read-out: pTGI (converted)
  TGI: 21.4 µM
EKVX
  growth at 100 µM: -25%
M14 [3]
  growth at 100 µM: -66%
COLO 205
  growth at 100 µM: -71%
HCC 2998 [4]; read-out: GI50
  GI50: < 0.01 µM
HCC 2998 [4]; [15]
  CC50: 44.3 µM
HCC 2998 [4]; read-out: TGI
  TGI: 11.4 µM
HCC 2998 [4]; read-out: pGI50 (converted)
  GI50: < 0.01 µM
HCC 2998 [4]; [16]
  CC50: 44.7 µM
HCC 2998 [4]; read-out: pTGI (converted)
  TGI: 11.5 µM
CCRF-CEM
  growth at 0.01 µM: 38%
LOX IMVI [5]
  growth at 0.1 µM: 16%
HCC 2998 [6]
  growth at 10 µM: 5%
T47D [7]
  growth at 0.1 µM: 74%
HOP-62; read-out: GI50
  GI50: < 0.01 µM
HOP-62; [15]
  CC50: 46.7 µM
HOP-62; read-out: TGI
  TGI: 10.8 µM
HOP-62; read-out: pGI50 (converted)
  GI50: < 0.01 µM
HOP-62; [16]
  CC50: 46.8 µM
HOP-62; read-out: pTGI (converted)
  TGI: 10.7 µM
K562
  growth at 0.1 µM: 19%
HT-29; read-out: GI50
  GI50: < 0.01 µM
HT-29; [15]
  CC50: 49.9 µM
HT-29; read-out: TGI
  TGI: 10.1 µM
HT-29; read-out: pGI50 (converted)
  GI50: < 0.01 µM
HT-29; [16]
  CC50: 50.1 µM
HT-29; read-out: pTGI (converted)
  TGI: 10 µM
SNB-19
  growth at 100 µM: -12%
SN12C [8]
  growth at 10 µM: 24%
SN12C [9]
  growth at 1 µM: 36%
HOP-92; read-out: GI50
  GI50: < 0.01 µM
HOP-92; [15]
  CC50: 99.8 µM
HOP-92; read-out: TGI
  TGI: 28.5 µM
HOP-92; read-out: pGI50 (converted)
  GI50: < 0.01 µM
HOP-92; [16]
  CC50: 100 µM
HOP-92; read-out: pTGI (converted)
  TGI: 28.2 µM
LOX IMVI [10]
  growth at 1 µM: 18%
SR [11]
  growth at 10 µM: 9%
MCF7; read-out: GI50
  GI50: < 0.01 µM
MCF7; read-out: LC50
  LC50: > 100 µM
MCF7; read-out: TGI
  TGI: 12.9 µM
MCF7; read-out: pGI50 (converted)
  GI50: < 0.01 µM
MCF7; read-out: pLC50 (converted)
  LC50: > 100 µM
MCF7; read-out: pTGI (converted)
  TGI: 12.9 µM
HCT-116
  growth at 10 µM: -15%
MOLT-4; read-out: GI50
  GI50: < 0.01 µM
MOLT-4; [15]
  CC50: > 100 µM
MOLT-4; read-out: TGI
  TGI: > 100 µM
MOLT-4; read-out: pGI50 (converted)
  GI50: < 0.01 µM
MOLT-4; [16]
  CC50: > 100 µM
MOLT-4; read-out: pTGI
  TGI: > 100 µM
CAKI-1
  growth at 1 µM: 22%
Malme-3M [12]
  growth at 1 µM: 44%
M14 [13]; read-out: GI50
  GI50: < 0.01 µM
M14 [13]; read-out: LC50
  LC50: 58.7 µM
M14 [13]; read-out: TGI
  TGI: 10.9 µM
M14 [13]; read-out: pGI50 (converted)
  GI50: < 0.01 µM
M14 [13]; read-out: pLC50 (converted)
  LC50: 58.9 µM
M14 [13]; read-out: pTGI (converted)
  TGI: 11 µM
SR [14]
  growth at 100 µM: -15%
U-251
  growth at 100 µM: -72%
SK-MEL-5; read-out: GI50
  GI50: < 0.01 µM
SK-MEL-5; [15]
  CC50: 24.2 µM
SK-MEL-5; read-out: TGI
  TGI: < 0.01 µM
SK-MEL-5; read-out: pGI50 (converted)
  GI50: < 0.01 µM
SK-MEL-5; [16]
  CC50: 24 µM
SK-MEL-5; read-out: pTGI
  TGI: < 0.01 µM
